In patent publication US8426394B2, “Progesterone antagonists such as CDB-4124 in the treatment of endometriosis, uterine fibroids, dysmenorrhea, breast cancer, etc” (Repros Therapeutics Inc., priority 2008, dated 2013):

Experiments:
[1] = target: T1, glucocorticoid receptor (rbGR) (Oryctolagus cuniculus, UniProt P59667); experiment: Glucocorticoid receptor binding / anti-glucocorticoid receptor activity; set-up: species or system rabbit
T1 construct: cytosol containing PR or GR were prepared in TEGMD buffer; from tissue; host or cells: thymus of estradiol-primed immature rabbits (cytosol)
T1 sequence (P59667 1-772): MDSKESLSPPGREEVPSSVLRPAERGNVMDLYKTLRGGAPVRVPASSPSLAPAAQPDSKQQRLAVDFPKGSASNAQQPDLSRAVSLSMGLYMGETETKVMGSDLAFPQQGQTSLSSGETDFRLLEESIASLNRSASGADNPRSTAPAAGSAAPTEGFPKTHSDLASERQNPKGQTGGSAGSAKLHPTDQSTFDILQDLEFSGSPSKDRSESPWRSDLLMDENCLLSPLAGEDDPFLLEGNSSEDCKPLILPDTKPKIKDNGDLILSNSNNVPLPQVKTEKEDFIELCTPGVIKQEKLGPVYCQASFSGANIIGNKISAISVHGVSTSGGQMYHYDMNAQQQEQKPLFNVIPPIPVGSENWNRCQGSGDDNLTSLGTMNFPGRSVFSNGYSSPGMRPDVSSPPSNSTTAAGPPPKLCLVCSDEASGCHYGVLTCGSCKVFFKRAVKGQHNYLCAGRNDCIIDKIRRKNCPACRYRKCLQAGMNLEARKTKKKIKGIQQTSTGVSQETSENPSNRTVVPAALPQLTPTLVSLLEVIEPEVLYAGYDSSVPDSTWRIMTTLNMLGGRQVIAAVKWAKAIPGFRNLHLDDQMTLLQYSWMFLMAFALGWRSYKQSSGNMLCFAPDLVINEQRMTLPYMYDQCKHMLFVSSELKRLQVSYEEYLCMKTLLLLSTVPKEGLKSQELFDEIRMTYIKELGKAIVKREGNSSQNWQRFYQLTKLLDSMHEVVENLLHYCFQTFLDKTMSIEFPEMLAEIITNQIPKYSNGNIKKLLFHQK
Procedure: Certain antiprogestins were tested in receptor-binding assays for their ability to bind rabbit progesterone receptor (rbPR) and glucocorticoid receptor (rbGR). […] For PR binding, the cytosol was incubated with 6 nM 1,2-[^3H]progesterone (50.0 Ci/mmole) and competitors were added at concentrations from 2 to 100 nM. For binding to GR, the cytosol was incubated with 6 nM 6,7-[^3H]-dexamethasone (40 Ci/mmol) and test compounds were added at concentrations from 20 to 100 nM. After overnight incubation at 4 C, bound and unbound [^3H] steroids were separated by addition of dextran-coated charcoal and centrifugation at 2100×g for 15 min at 4 C. Supernatants containing the [3H]-steroid receptor complexes were decanted into vials containing 4 ml Optifluor (Packard Instrument Co.), vortexed, equilibrated in a liquid scintillation counter for 30 minutes and then counted for 2 minutes. […] The standards for the PR and GR assays were unlabeled progesterone and dexamethasone, respectively.

[2] = test system: progesterone-induced endometrial proliferation in the rabbit uterus; experiment: anti-McGinty and anti-Clauberg assays (biological activity in the rabbit uterus); format: in vivo; details: in comparison to RU 486 and CDB-2914
Source text: Also given in Table 1 are the relative biological activities of the same compounds in the rabbit uterus by the anti-McGinty and anti-Clauberg assays. Compound CDB-2914 (listed at the end of the Table) was used as the control or reference compound (rabbit Biological Activity=1.00) for these experiments because results of experiments using CDB-2914 have been published before (Hild-Petito et al., 1996; Passaro et al., 1997; Reel et al., 1998; Lamer et al., 2000). For the anti-McGinty test, immature female rabbits received a subcutaneous injection of 5 μg estradiol in 10% ethanol/sesame oil daily for 6 consecutive days. On day 7, animals underwent sterile abdominal surgery to ligate a 3-4 cm segment of both uterine horns. The test compound in appropriate solvent was injected intraluminally into the ligated segment of one uterine horn and vehicle alone into the other. […] Five micron sections stained with hematoxylin and cosin were evaluated microscopically for the degree of endometrial glandular proliferation. The percent inhibition of endometrial proliferation for each rabbit was calculated and the mean of the group of five animals recorded. […] Five micron sections stained with hematoxylin and eosin were evaluated microscopically for the degree of endometrial glandular proliferation. […]

glucocorticoid receptor = target: T2, glucocorticoid receptor (Homo sapiens, UniProt P04150); details: Attardi et al., 2002; cited from earlier work
T2 sequence (P04150 1-777): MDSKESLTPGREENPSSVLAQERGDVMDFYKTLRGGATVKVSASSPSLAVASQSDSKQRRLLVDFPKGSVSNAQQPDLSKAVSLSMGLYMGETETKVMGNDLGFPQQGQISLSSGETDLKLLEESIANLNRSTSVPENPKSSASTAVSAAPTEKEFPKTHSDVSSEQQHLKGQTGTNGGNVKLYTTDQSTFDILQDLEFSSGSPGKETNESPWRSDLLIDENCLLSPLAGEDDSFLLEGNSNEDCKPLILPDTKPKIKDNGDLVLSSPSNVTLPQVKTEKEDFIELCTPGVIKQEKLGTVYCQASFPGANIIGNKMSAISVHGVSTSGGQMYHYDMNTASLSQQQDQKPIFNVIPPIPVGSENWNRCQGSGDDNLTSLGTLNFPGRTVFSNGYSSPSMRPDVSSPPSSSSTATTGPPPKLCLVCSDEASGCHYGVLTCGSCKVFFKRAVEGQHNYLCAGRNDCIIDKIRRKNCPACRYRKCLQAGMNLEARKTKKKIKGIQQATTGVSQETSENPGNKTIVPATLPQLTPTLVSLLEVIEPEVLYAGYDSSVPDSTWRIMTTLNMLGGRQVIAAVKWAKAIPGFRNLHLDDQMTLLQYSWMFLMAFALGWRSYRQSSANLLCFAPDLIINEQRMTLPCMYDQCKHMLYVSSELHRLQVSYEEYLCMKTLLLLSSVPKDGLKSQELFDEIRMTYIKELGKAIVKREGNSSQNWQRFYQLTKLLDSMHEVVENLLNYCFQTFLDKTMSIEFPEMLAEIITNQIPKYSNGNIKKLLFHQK

[3] = test system: pre-menopausal adult women diagnosed with endometriosis; experiment: Six month study of Proellex (CDB-4124) in the treatment of endometriosis; format: in vivo, human; details: Lucrin
Procedure: Pain reduction also occurred more rapidly than with the active control, Lucrin®. The response of pain to treatment in this study was analyzed in two ways. Patients in the study maintained daily pain diaries to record the severity and frequency of pain. In addition, at each office visit, patients filled out endometriosis symptom surveys that included a questionnaire that evaluated intensity of pain on a bad day on a scale of 0-10 with 10 being the greatest intensity. […] There appeared to be a dose dependent effect on pain reduction. […] This decrease in duration of pain was statistically better (p=0.0012) than the 117.8 (74%; standard deviation 51.4 days) pain free days achieved with Lucrin®. […] Patients on CDB-4124 12.5 mg and 25 mg doses had 115.9 (66%; standard deviation 69.2 days) and 133.6 (75%; standard deviation 27.4 days) pain free days, respectively. […] The 25 mg and 12.5 mg doses of CDB-4124 were not statistically different from Lucrin®. […] The intensity of pain was assessed by the question: “On a […], with 0 being no pain and 10 being extreme pain, how intense was your pain on a bad day?” The mean scores for intensity of pain at baseline were 6.3 for the CDB-4124 groups and 6.1 for the Lucrin® group. […] At month three all four active treatment groups had statistically significant reduction in pain compared with baseline, with the following scores: 3.7 (p=0.03) for 12.5 mg CDB-4124, 3.2 (p=0.03) for 25 mg CDB-4124, 1.6 (p=0.015) for 50 mg CDB-4124 and 1.5 (p=0.016) for Lucrin®. These dose related reductions continued until month six when the values for pain intensity were 2.0 (p=0.008), 2.8 (p=0.023), 0.6 (p=0.004) and 0.7 (p=0.016), respectively. Two months after stopping treatment pain returned and was of similar intensity in all four treatment groups.

[4] = Serum corticosterone in rats; details: progesterone, CDB-4124 and RU-486 groups compared

In the case of `CC(=O)OCC(=O)[C@@]1(OC(C)=O)CCC2C3CCC4=CC(=O)CCC4=C3C(c3ccc(N(C)C)cc3)C[C@@]21C` (stereo partly drawn) [CDB-4059, 21-acetoxy-17α-acetoxy-11β-(4 N,N-dimethylaminophenyl)-19-norpregna-4,9-diene-3,20-dione], the “anti-glucocorticoid receptor activity / glucocorticoid receptor binding” value [1] is reported as “minimal” and the “antiprogestin activity in the rabbit uterus” value [2] is reported as “strong”.
For `CNc1ccc([C@H]2C[C@@]3(C)[C@@H](CC[C@]3(OC(C)=O)C(=O)COC)[C@@H]3CCC4=CC(=O)CCC4=C32)cc1` [CDB-4453, 21-methoxy-17α-acetoxy-11β-(4-N-methylaminophenyl)-19-norpregna-4,9-diene-3,20-dione], the “anti-glucocorticoid activity relative to parent CDB-4124” value (glucocorticoid receptor) is given as “even lower”.
With `CCNC(=O)[C@@H]1CCCN1C(=O)[C@H](CCCNC(=N)N)NC(=O)[C@H](CC(C)C)NC(=O)[C@@H](CC(C)C)NC(=O)[C@H](Cc1ccc(O)cc1)NC(=O)[C@H](CO)NC(=O)[C@H](Cc1c[nH]c2ccccc12)NC(=O)[C@H](Cc1c[nH]cn1)NC(=O)[C@@H]1CCC(=O)N1` [Lupron®, leuprolide acetate, reference compound] the “intensity of pain on a bad day (score)” value ([3]; month six, scale 0-10, p=0.016) was 0.7 and the “intensity of pain on a bad day (score)” value ([3]; month three, scale 0-10, baseline 6.1, p=0.016) was 1.5.
In the case of `CC#C[C@]1(O)CC[C@H]2[C@@H]3CCC4=CC(=O)CCC4=C3[C@@H](c3ccc(N(C)C)cc3)C[C@@]21C` [RU 486, 11β-[p-(Dimethylamino)phenyl]-17β-hydroxy-17-(1-propynyl)estra-4,9-dien-3-one, reference compound], the “differences in serum corticosterone between treatment groups” value [4] is reported as “No differences”.
